Source: patent US20250195521A1 (Revolution Medicines, Inc., priority 2020, published 2025)
Read-outs that look alike come from different tables or passages of the source.

How the values were obtained:
[1] = test system: K-Ras G12C (NCI-H358 cells); assay: Potency assay: pERK in NCI-H358 cells; assay type: cell-based, human; conditions: Homo sapiens, read-out: pERK EC50 (H358 KRAS G12C)
Summary of the method: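 Cells plated the day before were exposed for 4 h at 37° C, 5% CO2 to a 10-point, 3-fold DMSO dilution series (10 mM top stock), in duplicate. Phospho-ERK was read by AlphaLISA SureFire Ultra or by In-Cell Western with DRAQ5 DNA stain, and IC50 came from a 4-parameter sigmoidal fit.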

[2] = test system: NCI-H358 cells (K-Ras G12C); assay: CellTiter-Glo cell viability, NCI-H358; assay type: cell-based, human; conditions: Homo sapiens, NCI-H358, 120 h, read-out: H358 Cell Viability IC50
Summary of the method: (§1)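 Endpoint: CellTiter-Glo luminescence on day 5, following ~30 min at room temperature. Data as (sample/mean DMSO)×100, four-parameter logistic fit.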

[3] = test system: Capan-1 cells (K-Ras G12V); assay: CellTiter-Glo cell viability, Capan-1; assay type: cell-based, human; conditions: Homo sapiens, CAPAN-1, 120 h, read-out: Capan-1 Cell Viability IC50
Summary of the method: as §1

KRAS G13C = KRAS G13C (Homo sapiens (Human), UniProt P01116+P62937, G13C); assay: Ras-Raf disruption/FRET/MOA assay (BRAF RBD, Cyclophilin A); assay type: biochemical; conditions: read-out: KRAS G13C FRET IC50
Summary of the method: (§2)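 His6-K-Ras-GMPPNP (12.5 nM), GST-BRAF RBD (50 nM) and tagless Cyclophilin A (25 μM) were combined in 25 mM HEPES pH 7.3 with 100 mM NaCl, 5 mM MgCl2, 0.1% BSA and 0.002% Tween20, with compound as a 10-point 3-fold series from 30 μM final, then incubated 3 h at 25° C.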

KRAS G12C = KRAS G12C (Homo sapiens (Human), UniProt P01116+P62937, G12C); assay: as above; assay type: biochemical; conditions: read-out: KRAS G12C FRET IC50
Summary of the method: as §2

KRAS WT = KRAS WT (Homo sapiens (Human), UniProt P01116+P62937); assay: as above; assay type: biochemical; conditions: read-out: KRAS WT FRET data IC50
Summary of the method: as §2

NRAS G12C = NRAS G12C (Homo sapiens (Human), UniProt P01111+P62937, G12C); assay: as above; assay type: biochemical; conditions: read-out: NRAS G12C FRET data IC50
Summary of the method: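 TR-FRET read after 1.5 h with 10 nM anti-His Eu-W1024 and 50 nM anti-GST APC, following 3 h at 25 °C of GMPPNP-loaded His6-Ras (12.5 nM), GST-BRAF RBD (50 nM) and Cyclophilin A (25 μM) with compound from 30 μM final, 10 points, 3-fold. IC50 reported; pH 7.3 HEPES, 100 mM NaCl.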

KRAS G13D = KRAS G13D (Homo sapiens (Human), UniProt P01116+P62937, G13D); assay: as above; assay type: biochemical; conditions: read-out: KRAS G13D FRET data IC50
Summary of the method: as §2

KRAS G12D = KRAS G12D (Homo sapiens (Human), UniProt P01116+P62937, G12D); assay: as above; assay type: biochemical; conditions: read-out: KRAS G12D FRET IC50
Summary of the method: as §2

KRAS G12S = KRAS G12S (Homo sapiens (Human), UniProt P01116+P62937, G12S); assay: as above; assay type: biochemical; conditions: read-out: KRAS G12S FRET IC50
Summary of the method: as §2

KRAS G12V = KRAS G12V (Homo sapiens (Human), UniProt P01116+P62937, G12V); assay: as above; assay type: biochemical; conditions: read-out: KRAS G12V FRET IC50
Summary of the method: as §2

Sequence of KRAS G12C (P01116-2 other isoform, or with tags, fused parts or gaps G12C): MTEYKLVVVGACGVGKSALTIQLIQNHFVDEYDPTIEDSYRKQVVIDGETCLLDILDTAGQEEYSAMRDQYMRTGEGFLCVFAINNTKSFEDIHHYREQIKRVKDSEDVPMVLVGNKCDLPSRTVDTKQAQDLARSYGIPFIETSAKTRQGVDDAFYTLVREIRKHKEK
Sequence of KRAS G12C (P62937 whole entry): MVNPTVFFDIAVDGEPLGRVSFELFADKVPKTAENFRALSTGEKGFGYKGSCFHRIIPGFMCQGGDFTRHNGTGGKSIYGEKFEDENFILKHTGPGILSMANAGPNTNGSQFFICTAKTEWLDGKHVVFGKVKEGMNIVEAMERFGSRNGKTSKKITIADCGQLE
Sequence of KRAS WT (P01116 other isoform, or with tags, fused parts or gaps): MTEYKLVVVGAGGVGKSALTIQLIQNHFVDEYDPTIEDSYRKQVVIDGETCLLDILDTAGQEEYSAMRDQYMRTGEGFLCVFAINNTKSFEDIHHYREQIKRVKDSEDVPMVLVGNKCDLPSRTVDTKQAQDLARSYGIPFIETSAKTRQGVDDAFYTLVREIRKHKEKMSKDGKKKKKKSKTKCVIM
Sequence of KRAS WT (P62937 whole entry): as the sequence (P62937 whole entry) above
Sequence of NRAS G12C (P01111 whole entry G12C): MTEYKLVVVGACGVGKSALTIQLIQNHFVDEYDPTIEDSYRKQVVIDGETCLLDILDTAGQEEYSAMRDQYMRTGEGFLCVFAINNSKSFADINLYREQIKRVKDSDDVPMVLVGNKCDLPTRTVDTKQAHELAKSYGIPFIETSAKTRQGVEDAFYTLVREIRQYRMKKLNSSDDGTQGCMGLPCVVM
Sequence of NRAS G12C (P62937 whole entry): as the sequence (P62937 whole entry) above
Sequence of KRAS G12S (P01116 other isoform, or with tags, fused parts or gaps G12S): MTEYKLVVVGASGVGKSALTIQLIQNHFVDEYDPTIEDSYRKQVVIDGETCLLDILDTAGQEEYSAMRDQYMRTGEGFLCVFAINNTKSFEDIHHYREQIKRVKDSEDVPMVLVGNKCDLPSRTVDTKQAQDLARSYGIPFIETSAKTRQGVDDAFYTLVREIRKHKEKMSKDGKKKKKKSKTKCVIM
Sequence of KRAS G12S (P62937 whole entry): as the sequence (P62937 whole entry) above
Sequence of KRAS G13C (P01116 other isoform, or with tags, fused parts or gaps G13C): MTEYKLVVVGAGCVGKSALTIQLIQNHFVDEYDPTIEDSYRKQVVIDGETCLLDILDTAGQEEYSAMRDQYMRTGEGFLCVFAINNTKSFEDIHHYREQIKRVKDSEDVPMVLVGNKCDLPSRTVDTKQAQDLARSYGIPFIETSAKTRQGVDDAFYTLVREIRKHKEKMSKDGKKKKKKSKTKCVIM
Sequence of KRAS G13C (P62937 whole entry): as the sequence (P62937 whole entry) above
Sequence of KRAS G12V (P01116 other isoform, or with tags, fused parts or gaps G12V): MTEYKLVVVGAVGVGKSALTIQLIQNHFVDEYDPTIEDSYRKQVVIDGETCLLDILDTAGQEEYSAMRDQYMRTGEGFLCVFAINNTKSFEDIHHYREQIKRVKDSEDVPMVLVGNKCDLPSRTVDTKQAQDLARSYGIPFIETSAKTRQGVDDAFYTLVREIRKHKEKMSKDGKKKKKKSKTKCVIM
Sequence of KRAS G12V (P62937 whole entry): as the sequence (P62937 whole entry) above
Sequence of KRAS G12D (P01116 other isoform, or with tags, fused parts or gaps G12D): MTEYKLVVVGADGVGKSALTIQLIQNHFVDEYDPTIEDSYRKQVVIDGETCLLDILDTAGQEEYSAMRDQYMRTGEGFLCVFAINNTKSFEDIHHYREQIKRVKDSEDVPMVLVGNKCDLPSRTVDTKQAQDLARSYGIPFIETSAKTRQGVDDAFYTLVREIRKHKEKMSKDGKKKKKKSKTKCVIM
Sequence of KRAS G12D (P62937 whole entry): as the sequence (P62937 whole entry) above
Sequence of KRAS G13D (P01116 other isoform, or with tags, fused parts or gaps G13D): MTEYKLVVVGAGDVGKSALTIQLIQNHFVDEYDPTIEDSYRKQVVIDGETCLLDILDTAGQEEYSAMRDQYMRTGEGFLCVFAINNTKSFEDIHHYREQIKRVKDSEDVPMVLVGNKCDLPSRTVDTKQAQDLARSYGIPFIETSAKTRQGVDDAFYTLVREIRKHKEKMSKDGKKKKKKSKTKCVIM
Sequence of KRAS G13D (P62937 whole entry): as the sequence (P62937 whole entry) above

Row | Structure (SMILES) | EC50 ([1]; NCI-H358 cells, 4 hours) | IC50 ([2]; K-Ras G12C, 5-day treatment) | IC50 (KRAS G13C) | IC50 (KRAS G12C) | IC50 (KRAS WT) | IC50 (NRAS G12C) | IC50 (KRAS G13D) | IC50 (KRAS G12D) | IC50 (KRAS G12S) | IC50 (KRAS G12V) | IC50 ([3]; K-Ras G12V, 5-day treatment) | EC50 ([1]; NCI-H358, 4 h) | IC50 [2] | IC50 [3]
1 | CCn1c(-c2cccnc2COC)c2c3cc(ccc31)-c1cc(O)cc(c1)C[C@H](NC(=O)[C@H](C(C)C)N(C)C(=O)OC1COC1)C(=O)N1CCC[C@H](N1)C(=O)OCC(C)(C)C2 [Compound A39] | < 5000 nM | 100 to 1000 nM | 100 to 1000 nM | 100 to 1000 nM | 100 to 1000 nM | 100 to 1000 nM | 100 to 1000 nM | 1000 to 10000 nM | 100 to 1000 nM | 100 to 1000 nM | 100 to 1000 nM | – | – | –
2 | CCn1c(-c2cnccc2COC)c2c3cc(ccc31)-c1cc(O)cc(c1)C[C@H](NC(=O)[C@H](C(C)C)N1CCCC1=O)C(=O)N1CCC[C@H](N1)C(=O)OCC(C)(C)C2 [Compound A40] | < 5000 nM | 1000 to 10000 nM | 100 to 1000 nM | 100 to 1000 nM | 100 to 1000 nM | 100 to 1000 nM | 100 to 1000 nM | 1000 to 10000 nM | 100 to 1000 nM | 100 to 1000 nM | 1000 to 10000 nM | – | – | –
3 | CCn1c(-c2cnccc2COC)c2c3cc(ccc31)-c1cc(O)cc(c1)C[C@H](NC(=O)[C@H](C(C)C)N(C)C(=O)[C@H]1CCCN1C)C(=O)N1CCC[C@H](N1)C(=O)OCC(C)(C)C2 [Compound A83] | < 5000 nM | 1000 to 10000 nM | 100 to 1000 nM | 100 to 1000 nM | 100 to 1000 nM | 100 to 1000 nM | 100 to 1000 nM | 100 to 1000 nM | 100 to 1000 nM | 100 to 1000 nM | 1000 to 10000 nM | – | – | –
4 | CCn1c(-c2cccnc2[C@H](C)OC)c2c3cc(ccc31)-c1csc(n1)C[C@H](NC(=O)[C@H](C(C)C)N(C)C(=O)N1CC3CC(C1)O3)C(=O)N1CCC[C@H](N1)C(=O)OCC(C)(C)C2 [Compound A301] | – | – | 1000 to 10000 nM | 100 to 1000 nM | 100 to 1000 nM | 100 to 1000 nM | 1000 to 10000 nM | 1000 to 10000 nM | 100 to 1000 nM | 100 to 1000 nM | – | < 5000 nM | 10 to 100 nM | 100 to 1000 nM
5 | CCn1c(-c2cccnc2[C@H](C)OC)c2c3cc(ccc31)-c1csc(n1)C[C@H](NC(=O)[C@H](C(C)C)N(C)S(=O)(=O)N1CC(OC)C1)C(=O)N1CCC[C@H](N1)C(=O)OCC(C)(C)C2 [Compound A322] | < 5000 nM | 100 to 1000 nM | 100 to 1000 nM | 100 to 1000 nM | 100 to 1000 nM | 100 to 1000 nM | 1000 to 10000 nM | 1000 to 10000 nM | 1000 to 10000 nM | 100 to 1000 nM | 100 to 1000 nM | – | – | –

Further lines, with some results ahead:

Row | EC50 ([1]; NCI-H358 cells, 4 hours) | IC50 ([2]; K-Ras G12C, 5-day treatment) | IC50 (KRAS G13C) | IC50 (KRAS G12C) | IC50 (KRAS WT) | IC50 (NRAS G12C) | IC50 (KRAS G13D) | IC50 (KRAS G12D) | IC50 (KRAS G12S) | IC50 (KRAS G12V) | Structure (SMILES) | IC50 ([3]; K-Ras G12V, 5-day treatment) | EC50 ([1]; NCI-H358, 4 h) | IC50 [2] | IC50 [3]
6 | < 5000 nM | 100 to 1000 nM | 10 to 100 nM | 100 to 1000 nM | 100 to 1000 nM | 100 to 1000 nM | 10 to 100 nM | 100 to 1000 nM | 100 to 1000 nM | 1000 to 10000 nM | CCn1c(-c2cccnc2[C@H](C)OC)c2c3cc(ccc31)-c1cc(O)cc(c1)C[C@H](NC(=O)[C@H](C(C)C)N(C)C(=O)O[C@H]1CCN(C)C1)C(=O)N1CCC[C@H](N1)C(=O)OCC(C)(C)C2 [Compound A169] | 100 to 1000 nM | – | – | –
7 | < 5000 nM | 10 to 100 nM | 10 to 100 nM | 10 to 100 nM | 10 to 100 nM | 10 to 100 nM | 10 to 100 nM | 100 to 1000 nM | 10 to 100 nM | 10 to 100 nM | CCn1c(-c2cccnc2[C@H](C)OC)c2c3cc(ccc31)-c1cc(O)cc(c1)C[C@H](NC(=O)[C@H](C(C)C)N(C)C(=O)[C@H]1CCN(C(=O)OC3CC3)C1)C(=O)N1CCC[C@H](N1)C(=O)OCC(C)(C)C2 [Compound A202] | 10 to 100 nM | – | – | –
8 | < 5000 nM | 10 to 100 nM | 10 to 100 nM | 10 to 100 nM | 10 to 100 nM | 10 to 100 nM | 10 to 100 nM | 10 to 100 nM | 10 to 100 nM | 10 to 100 nM | CCn1c(-c2cccnc2[C@H](C)OC)c2c3cc(ccc31)-c1cc(O)cc(c1)C[C@H](NC(=O)[C@H](C(C)C)N(C)C(=O)C1CCc3ncccc3C1)C(=O)N1CCC[C@H](N1)C(=O)OCC(C)(C)C2 (stereo partly shown) [Compound A247] | 10 to 100 nM | – | – | –
